Columns and labels:
Assay in all cases: relative viability (nuclei count vs DMSO), 5 days (fraction); higher = more cells survive
[1] = system: A549
Outline: (§1)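 Values are medians from duplicate plates. Each reflects relative viability, defined as the nuclei count of treated wells over that of vehicle wells. Lung cancer cell lines in 1536-well plates were pin-tool dosed one day after seeding with one drug alone or with a fixed anchor-drug dose plus five library-drug doses (not always all listed) in √10 steps, then fixed, stained and imaged at 4× after 5 days.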

[2] = system: IA-LM
Outline: as §1

[3] = system: Calu-6
Outline: as §1

[4] = system: LK-2
Outline: as §1

[5] = system: NCI-H1703
Outline: as §1

[6] = system: NCI-H1299
Outline: as §1

[7] = system: CAL-12T
Outline: as §1

[8] = system: NCI-H1623
Outline: as §1

[9] = system: EBC-1
Outline: as §1

[10] = system: NCI-H1650
Outline: as §1

[11] = system: NCI-H1648
Outline: as §1

[12] = system: NCI-H522
Outline: as §1

## O=C(O)c1ccc(-c2c[nH]c3ncc(-c4ccccc4)cc23)cc1C1CCCC1 + COc1cc2c(Oc3ccc(NC(=O)C4(C(=O)Nc5ccc(F)cc5)CC4)cc3F)ccnc2cc1OCCCN1CCOCC1 [Foretinib] (partner 0.25 µM)
[1]; first compound 0.04 µM
  relative viability: 0.944
[1]; first compound 0.1265 µM
  relative viability: 1.07
[1]; first compound 0.4 µM
  relative viability: 1.07
[1]; first compound 1.265 µM
  relative viability: 0.628
[2]; first compound 0.04 µM
  relative viability: 1.23
[2]; first compound 0.1265 µM
  relative viability: 1.25
[2]; first compound 0.4 µM
  relative viability: 1.15
[2]; first compound 1.265 µM
  relative viability: 0.864
[3]; first compound 0.04 µM
  relative viability: 0.872
[3]; first compound 0.1265 µM
  relative viability: 0.904
[3]; first compound 0.4 µM
  relative viability: 0.815
[3]; first compound 1.265 µM
  relative viability: 0.706
[4]; first compound 0.04 µM
  relative viability: 1.33
[4]; first compound 0.1265 µM
  relative viability: 1.14
[4]; first compound 0.4 µM
  relative viability: 1.13
[4]; first compound 1.265 µM
  relative viability: 0.969
[5]; first compound 0.04 µM
  relative viability: 0.381
[5]; first compound 0.1265 µM
  relative viability: 0.313
[5]; first compound 0.4 µM
  relative viability: 0.348
[5]; first compound 1.265 µM
  relative viability: 0.372
[6]; first compound 0.04 µM
  relative viability: 1.12
[6]; first compound 0.1265 µM
  relative viability: 1.14
[6]; first compound 0.4 µM
  relative viability: 1.04
[6]; first compound 1.265 µM
  relative viability: 0.956
[7]; first compound 0.04 µM
  relative viability: 1.22
[7]; first compound 0.1265 µM
  relative viability: 1.07
[7]; first compound 0.4 µM
  relative viability: 1.13
[7]; first compound 1.265 µM
  relative viability: 0.997
[8]; first compound 0.04 µM
  relative viability: 0.859
[8]; first compound 0.1265 µM
  relative viability: 0.747
[8]; first compound 0.4 µM
  relative viability: 0.835
[8]; first compound 1.265 µM
  relative viability: 0.798
[9]; first compound 0.04 µM
  relative viability: 0.112
[9]; first compound 0.1265 µM
  relative viability: 0.123
[9]; first compound 0.4 µM
  relative viability: 0.119
[9]; first compound 1.265 µM
  relative viability: 0.101
[10]; first compound 0.04 µM
  relative viability: 1.22
[10]; first compound 0.1265 µM
  relative viability: 1.57
[10]; first compound 0.4 µM
  relative viability: 1.6
[10]; first compound 1.265 µM
  relative viability: 1.14

## NC(=O)Nc1cc(-c2cccc(F)c2)sc1C(=O)N[C@H]1CCCNC1 [AZD7762] + COc1cccc2cc(-c3nc([C@H]4CC[C@H](C(=O)O)CC4)n4ncnc(N)c34)[nH]c12 [OSI-027] (partner 0.5 µM)
[4]; first compound 0.01 µM
  relative viability: 0.192
[4]; first compound 0.03162 µM
  relative viability: 0.228
[4]; first compound 0.1 µM
  relative viability: 0.213
[4]; first compound 0.3162 µM
  relative viability: 0.186
[4]; first compound 1 µM
  relative viability: 0.165
[11]; first compound 0.01 µM
  relative viability: 0.244
[11]; first compound 0.03162 µM
  relative viability: 0.257
[11]; first compound 0.1 µM
  relative viability: 0.27
[11]; first compound 0.3162 µM
  relative viability: 0.253
[11]; first compound 1 µM
  relative viability: 0.294
[7]; first compound 0.01 µM
  relative viability: 0.676
[7]; first compound 0.03162 µM
  relative viability: 0.73
[7]; first compound 0.1 µM
  relative viability: 0.768
[7]; first compound 0.3162 µM
  relative viability: 0.487
[7]; first compound 1 µM
  relative viability: 0.124
[8]; first compound 0.01 µM
  relative viability: 0.44
[8]; first compound 0.03162 µM
  relative viability: 0.464
[8]; first compound 0.1 µM
  relative viability: 0.414
[8]; first compound 0.3162 µM
  relative viability: 0.424
[8]; first compound 1 µM
  relative viability: 0.378
[12]; first compound 0.01 µM
  relative viability: 0.711
[12]; first compound 0.03162 µM
  relative viability: 0.683
[12]; first compound 0.1 µM
  relative viability: 0.696
[12]; first compound 0.3162 µM
  relative viability: 0.755
[12]; first compound 1 µM
  relative viability: 0.807
[10]; first compound 0.01 µM
  relative viability: 0.688
[10]; first compound 0.03162 µM
  relative viability: 0.638
[10]; first compound 0.1 µM
  relative viability: 0.708
[10]; first compound 0.3162 µM
  relative viability: 0.425
[10]; first compound 1 µM
  relative viability: 0.206

## C=C1C(=O)O[C@@H](CCCCCCCC)[C@@H]1C(=O)O [C-75] + COc1cccc2cc(-c3nc([C@H]4CC[C@H](C(=O)O)CC4)n4ncnc(N)c34)[nH]c12 [OSI-027] (partner 0.5 µM)
[4]; first compound 0.08 µM
  relative viability: 0.209
[4]; first compound 0.253 µM
  relative viability: 0.212
[4]; first compound 0.8 µM
  relative viability: 0.222
[4]; first compound 2.53 µM
  relative viability: 0.16
[4]; first compound 8 µM
  relative viability: 0.145
[11]; first compound 0.08 µM
  relative viability: 0.238
[11]; first compound 0.253 µM
  relative viability: 0.301
[11]; first compound 0.8 µM
  relative viability: 0.276
[11]; first compound 8 µM
  relative viability: 0.267
[7]; first compound 0.08 µM
  relative viability: 0.862
[7]; first compound 0.253 µM
  relative viability: 1.06
[7]; first compound 0.8 µM
  relative viability: 0.697
[7]; first compound 2.53 µM
  relative viability: 0.592
[7]; first compound 8 µM
  relative viability: 0.63
[8]; first compound 0.08 µM
  relative viability: 0.463
[8]; first compound 0.253 µM
  relative viability: 0.503
[8]; first compound 0.8 µM
  relative viability: 0.416
[8]; first compound 2.53 µM
  relative viability: 0.38
[8]; first compound 8 µM
  relative viability: 0.457
[12]; first compound 0.08 µM
  relative viability: 0.744
[12]; first compound 0.253 µM
  relative viability: 0.819
[12]; first compound 0.8 µM
  relative viability: 0.753
[12]; first compound 8 µM
  relative viability: 0.641
[10]; first compound 0.08 µM
  relative viability: 0.743
[10]; first compound 0.253 µM
  relative viability: 0.856
[10]; first compound 2.53 µM
  relative viability: 0.442
[10]; first compound 8 µM
  relative viability: 0.851

## O=C(O)c1ccc(-c2c[nH]c3ncc(-c4ccccc4)cc23)cc1C1CCCC1 + N=C(N)NC(=N)NCCc1ccccc1 [Phenformin] (partner 250 µM)
[1]; first compound 0.04 µM
  relative viability: 0.168
[1]; first compound 0.1265 µM
  relative viability: 0.197
[1]; first compound 0.4 µM
  relative viability: 0.187
[1]; first compound 1.265 µM
  relative viability: 0.0803
[4]; first compound 0.04 µM
  relative viability: 0.733
[4]; first compound 0.1265 µM
  relative viability: 0.699
[4]; first compound 0.4 µM
  relative viability: 0.377
[4]; first compound 1.265 µM
  relative viability: 0.367
[7]; first compound 0.04 µM
  relative viability: 0.549
[7]; first compound 0.1265 µM
  relative viability: 0.629
[7]; first compound 0.4 µM
  relative viability: 0.579
[7]; first compound 1.265 µM
  relative viability: 0.337
[8]; first compound 0.04 µM
  relative viability: 0.618
[8]; first compound 0.1265 µM
  relative viability: 0.575
[8]; first compound 0.4 µM
  relative viability: 0.615
[8]; first compound 1.265 µM
  relative viability: 0.564
[12]; first compound 0.04 µM
  relative viability: 0.686
[12]; first compound 0.1265 µM
  relative viability: 0.724
[12]; first compound 0.4 µM
  relative viability: 0.549
[12]; first compound 1.265 µM
  relative viability: 0.65
[10]; first compound 0.04 µM
  relative viability: 0.469
[10]; first compound 0.1265 µM
  relative viability: 0.472
[10]; first compound 0.4 µM
  relative viability: 0.338
[10]; first compound 1.265 µM
  relative viability: 0.2

Reference: the supplement of paper PMC10307832
